Reference: patent US11946094B2, “Combination therapies and methods of use thereof” (Augusta University Research Institute, Inc., priority 2017, dated 2024)

tested on: OVCAR-8 cells; assay: Drug-siRNA combination screen: 346-compound anticancer library at 100 nM, CCK-8 viability; conditions: not given

| Compound | Score (sum of observed SD values for 18 genes) [SD] |
| --- | --- |
| Nc1nc(F)nc2c1ncn2[C@@H]1O[C@H](COP(=O)(O)O)[C@@H](O)[C@@H]1O [Fludarabine Phosphate] | −11.05 |

same assay, conditions: OVCAR-8; 12 tested HDACi

| Compound | number of tested HDACi highly synergistic with the gene knockdown |
| --- | --- |
| S100A11: siRNA knocking down S100A11; sense GAACUAGCUGCCUUCACAAtt (SEQ ID NO 27) (sense GAACUAGCUGCCUUCACAANN; antisense UUGUGAAGGCAGCUAGUUCNN; chemistry not given here) | 10 of 12 |

same assay, conditions: OVCAR-8; drug 100 nM plus siRNA knockdown of each of 18 genes; distance VAB−VA×VB in SD; single gene contributes at most +5 / −5; negative = synergy, positive = antagonism

| Compound | Score (sum of observed SD values for 18 genes) [SD] |
| --- | --- |
| CN(c1ncccc1CNc1nc(Nc2ccc3c(c2)CC(=O)N3)ncc1C(F)(F)F)S(C)(=O)=O [PF - 562271] | −17.41 |
| CC(C)(C)Cn1c(N)nc2ccc(-c3[nH]c(C(C)(C)C)nc3-c3ccc(F)cc3)nc21 [LY2228820] | −30.98 |
| Cc1c(NC(=O)OC[C@@H]2COCCN2)cn2ncnc(Nc3ccc4c(cnn4Cc4cccc(F)c4)c3)c12 [BMS-599626] | −40.89 |
| N#Cc1c(O)c2c(-c3ccc(-c4ccccc4O)cc3)csc2[nH]c1=O [A-769662] | −22.81 |
| CN1CCN(c2cccc(Nc3nc4c(-c5ccc(S(C)(=O)=O)cc5)cccn4n3)c2)CC1 [CEP33779] | −27.66 |
| O=C(CCc1ccc(O)cc1)c1c(O)cc(O)cc1O [Phloretin] | −16.21 |
| Cc1cc2c(C(C)C)c(O)c(O)c(C=O)c2c(O)c1-c1c(C)cc2c(C(C)C)c(O)c(O)c(C=O)c2c1O [Gossypol] | −13.34 |
| CC(C)C[C@H](NC(=O)CNC(=O)c1cc(Cl)ccc1Cl)B(O)O [Ixazomib] | -52.76 |
| COc1cc(Nc2ncc(F)c(Nc3ccc4c(n3)N(COP(=O)(O)O)C(=O)C(C)(C)O4)n2)cc(OC)c1OC [Fostamatinib] | −4.27 |
| CC(C)c1cc(-c2n[nH]c(=O)n2-c2ccc3c(ccn3C)c2)c(O)cc1O [Ganetespib] | 8.4 |
| CCC(=O)N1CCN(c2ccc(-n3c(=O)ccc4cnc5ccc(-c6cnc7ccccc7c6)cc5c43)cc2C(F)(F)F)CC1 [Torin 1] | −32.55 |
| CCc1cc(Nc2nccc(-c3c(-c4ccc(OC)c(C(=O)Nc5c(F)cccc5F)c4)nc4ccccn34)n2)c(OC)cc1N1CCC(N2CCN(S(C)(=O)=O)CC2)CC1 [GSK1904529A] | −10.83 |
| C[C@](O)(COc1ccc(C#N)cc1)C(=O)Nc1ccc(C#N)c(C(F)(F)F)c1 [Ostarine] | −14.47 |
| COc1nc(C)cnc1NS(=O)(=O)c1cccnc1-c1ccc(-c2nnco2)cc1 [Zibotentan] | 10.07 |
| Cl.Cl.NC1(c2ccc(-c3nc4ccc5n[nH]c(=O)n5c4cc3-c3ccccc3)cc2)CCC1 [MK-2206 2HCI] | −23.29 |
| O=C(Nc1c[nH]nc1-c1nc2ccc(CN3CCOCC3)cc2[nH]1)NC1CC1 [AT9283] | 12.54 |
| CC(C)c1onc(-c2c(Cl)cccc2Cl)c1COc1ccc(/C=C/c2cccc(C(=O)O)c2)c(Cl)c1 [GW4064] | −12.2 |
| Cc1cccc(-c2[nH]c(C(C)(C)C)nc2-c2ccc3nccnc3c2)n1 [SB 525334] | −32.05 |
| O=S(=O)([O-])CCSSCCS(=O)(=O)[O-].[Na+].[Na+] [Dimesna] | −2.17 |
| CC(C)[C@]12O[C@H]1[C@@H]1O[C@]13[C@]1(O[C@H]1C[C@H]1C4=C(CC[C@@]13C)C(=O)OC4)[C@@H]2O [Triptolide] | −15.95 |
| Cc1[nH]c(/C=C2\C(=O)Nc3ccc(S(=O)(=O)Cc4c(Cl)cccc4Cl)cc32)c(C)c1C(=O)N1CCC[C@@H]1CN1CCCC1 [PHA-665752] | −13.95 |

| Compound | Score (sum of observed SD values for 18 genes) [SD] |
| --- | --- |
| Cn1cc(C2=C(c3ccc(Cl)cc3Cl)C(=O)NC2=O)c2ccccc21 [SB216763] | −11.62 |
| CC(C)n1c(/C=C/C(O)CC(O)CC(=O)O)c(-c2ccc(F)cc2)c2ccccc21 (stereo not drawn) [Fluvastatin] | −20.51 |
| C[C@H]1COC2(CCN(c3nc(=O)c4cc(C(F)(F)F)cc([N+](=O)[O-])c4s3)CC2)O1 [BTZ043] | −13.06 |
| CN(C)CCOc1ccc(-c2nc(-c3ccncc3)c(-c3ccc4c(c3)CC/C4=N\O)[nH]2)cc1 [SB590885] | 27.34 |
| WYE-354 | −13.86 |
| Nc1nc(Nc2ccc(S(N)(=O)=O)cc2)nn1C(=O)c1c(F)cccc1F [JNJ - 7706621] | 5.07 |
| COc1ccccc1OCC(O)CN1CCN(CC(=O)Nc2c(C)cccc2C)CC1 (stereo not drawn) [Ranolazine] | −11.08 |
| C[C@]1(O)C[C@@H](c2nc(-c3ccc4ccc(-c5ccccc5)nc4c3)c3c(N)nccn32)C1 [Linsitinib] | −28.72 |
| Cc1cc(O)c2c(c1)C(=O)c1cccc(O)c1C2=O [Chrysophanol] | −5.16 |
| CCNC(=O)c1noc(-c2cc(C(C)C)c(O)cc2O)c1-c1ccc(CN2CCOCC2)cc1 [AUY922] | 8.46 |
| CC(=O)OCC(=O)[C@@]1(O)[C@H](C)C[C@H]2[C@@H]3CCC4=CC(=O)C=C[C@]4(C)[C@@]3(F)[C@@H](O)C[C@@]21C [Dexamethasone Acetate] | 6.26 |
| CN(C)Cc1ccc(-c2nc3cccc4c3n2CCNC4=O)cc1 [AG14361] | 2.72 |
| Cn1cnc(N)c2ncnc1-2 [3-Methyladenine] | −24.92 |
| CC(=O)c1c(C)c2cnc(Nc3ccc(N4CCNCC4)cn3)nc2n(C2CCCC2)c1=O [Palbociclib] | −30.45 |
| CC(C)CC(=O)Nc1[nH]nc2c1CN(C(=O)C1CCN(C)CC1)C2(C)C [PHA-793887] | −42.75 |
| C=C(c1ccc(C(=O)O)cc1)c1cc2c(cc1C)C(C)(C)CCC2(C)C [Bexarotene] | −1.35 |
| Medroxyprogesterone | −35.82 |
| CCOC(=O)C1=C[C@]2(CC)CCCN3CCc4c(n1c1ccccc41)[C@@H]32 [Vinpocetine] | −1.42 |
| COc1ccc(COc2cc3oc(=O)c4cc(C(C)O)ccc4c3cc2OC)cc1 (stereo not drawn) [Palomid 529] | 11.53 |
| OCCn1cc(-c2cnc3nnn(Cc4ccc5ncccc5c4)c3n2)cn1 [PF-04217903] | −6.89 |
| NC(=O)C1CCCc2c1[nH]c1ccc(Cl)cc21 (stereo not drawn) [EX 527] | −22.45 |

same assay, conditions: OVCAR-8; drug 100 nM; panel of 18 siRNA knockdowns

| Compound | synergy / antagonism of drug with gene knockdowns, in words |
| --- | --- |
| Cc1c(NC(=O)OC[C@@H]2COCCN2)cn2ncnc(Nc3ccc4c(cnn4Cc4cccc(F)c4)c3)c12 [BMS-599626] | significant synergy with nine or more genes |
| CN(C)CCOc1ccc(-c2nc(-c3ccncc3)c(-c3ccc4c(c3)CC/C4=N\O)[nH]2)cc1 [SB590885] | antagonistic with multiple genes |
| CC(C)CC(=O)Nc1[nH]nc2c1CN(C(=O)C1CCN(C)CC1)C2(C)C [PHA-793887] | strong synergies with multiple genes |

same assay, conditions: OVCAR-8; drug 100 nM; siRNA knockdown

| Compound | number of genes (of 18) whose knockdown synergizes with the drug [genes] |
| --- | --- |
| CO[C@H]1C[C@@H]2CC[C@@H](C)[C@@](O)(O2)C(=O)C(=O)N2CCCC[C@H]2C(=O)O[C@H]([C@H](C)C[C@@H]2CC[C@@H](OCCO)[C@H](OC)C2)CC(=O)[C@H](C)/C=C(\C)[C@@H](O)[C@@H](OC)C(=O)[C@H](C)C[C@H](C)/C=C/C=C/C=C/1C [Everolimus] | 14 |
